Experimental data published in patent US20130183435A1, “LOW TEMPERATURE PLASMA COATING FOR ANTI-BIOFILM FORMATION” (priority 2012, published 2013).

Tests used:
[1] = system: S. epidermidis RP62A biofilm; assay: Susceptibility of bacterial cells in biofilm to 6 μg/ml antibiotic; assay type: cell-based; conditions: for reduction of bacterial count in biofilm: 8 hours
Description: Susceptibility of bacterial cells in biofilm to antibiotics was studied with a protocol established previously with modification. SS and Ti wafers (1×1 cm) were sterilized, coated with human plasma, and placed into the wells of 24-well microplates. Overnight culture of S. epidermidis was diluted 1:200 into fresh THY medium with 0.5% glucose. Aliquots (1 ml) of the cell suspensions were seeded into each well containing wafers and incubated at 37° C. for 16 hours. The wafers were gently washed three times with PBS to remove non-adherent bacterial cells. Then fresh Mueller Hinton broth (MHB) with and without 6 μg/ml vancomycin or ciprofloxacin was added into the wells containing wafers and cultured at 37° C. for 8 hours. The wafers were washed four times with PBS and then put into tubes with PBS. The biofilms on wafers were detached and disaggregated with ultrasonic bath treatment. The number of bacterial cells was quantified using the spread plate technique. Response to antibiotic treatment of a treated sample was defined as the percentage of untreated samples calculated by CFU numbers. Triplicate of wafers were used in each experiments and four independent experiments were performed for vacomycin and three independent experiments were performed for ciprofloxacin.

[2] = system: S. epidermidis biofilm; assay: Antibiotic susceptibility assay of cells attached on wafers with different dose of ciprofloxacin; assay type: cell-based; conditions: for decrease of the number of bacteria recovered from biofilms / bacteria recovered: 128 μg/ml; for decrease of the number of bacteria recovered from biofilms: 48 hours
Description: Antibiotic susceptibility assay of S. epidermidis cells attached on wafers with different dose of antibiotics. Biofilm formation on the four groups of wafers in triplicate was performed as described in biofilm formation assay section. The wafers with biofilms were gently washed four times with PBS to remove non-adherent bacterial cells. Then fresh Mueller Hinton broth (MHB) with 0, 2, 8, 32, and 128 μg/ml ciprofloxacin (Sigma-Aldrich, St Louis, Mo.) was added into the wells containing wafers and cultured at 37° C. for 48 hours, with MHB medium with corresponding concentration of ciprofloxacin changed every 12 hours. The wafers were washed four times with PBS and bacteria numbers on the wafers were counted.

SMILES | reduction of bacterial count in biofilm ([1]; TMS coated SS wafer) | reduction of bacterial count in biofilm ([1]; TMS coated Ti wafer) [%] | response of bacterial cells to antibiotic treatment ([1]; uncoated wafers) | number of bacteria, percent of bacteria on bare surfaces with neither TMS coating nor ciprofloxacin treatment ([2]; 8 μg/ml, TMS coated surfaces) | number of bacteria, percent of bacteria on TMS coated surfaces without ciprofloxacin treatment ([2]; 32 μg/ml, TMS coated surfaces) | decrease of the number of bacteria recovered from biofilms ([2]; uncoated SS surfaces) [%] | decrease of the number of bacteria recovered from biofilms ([2]; uncoated Ti surfaces) [%] | bacteria recovered ([2]; TMS coated SS surfaces) | bacteria recovered ([2]; TMS coated Ti surfaces) | MBC for biofilms ([2]; biofilms on TMS coated surfaces, MBC = 99.9% (3 log10 units) decrease) | MBC for bacteria in biofilms ([2]; biofilms on uncoated surfaces) | reduction of bacterial count in biofilm ([1]; uncoated SS wafer) [%] | reduction of bacterial count in biofilm ([1]; uncoated Ti wafer) [%]
CN[C@H](CC(C)C)C(=O)N[C@H]1C(=O)N[C@@H](CC(N)=O)C(=O)N[C@H]2C(=O)N[C@H]3C(=O)N[C@H](C(=O)N[C@H](C(=O)O)c4cc(O)cc(O)c4-c4cc3ccc4O)[C@H](O)c3ccc(c(Cl)c3)Oc3cc2cc(c3O[C@@H]2O[C@H](CO)[C@@H](O)[C@H](O)[C@H]2O[C@H]2C[C@](C)(N)[C@H](O)[C@H](C)O2)Oc2ccc(cc2Cl)[C@H]1O [vacomycin, vancomycin] | about 83.8±4.3% | 91.9±1.6 | resistant |  |  |  |  |  |  |  |  |  | 
O=C(O)c1cn(C2CC2)c2cc(N3CCNCC3)c(F)cc2c1=O [ciprofloxacin] | 99.4±0.1% | 96.8±1.4 |  | less than 0.01% | less than 0.1% | 99.6±0.07 | 99.3±0.1 | 177±80 | 444±217 | less than 32 μg/ml | more than 128 μg/ml | 86±1.2 | 81.8±3.2
